Test results as given in ChEMBL document CHEMBL1759842, “Discovery of non-glucoside SGLT2 inhibitors” (Bioorg Med Chem Lett, 2011).

Tests used:
Assay type in all cases: cell-based
[1] = target: T1, Sodium/glucose cotransporter 1 (Rattus norvegicus, UniProt P53790); test: Inhibition of rat SGLT1 expressed in CHO cells assessed as inhibition of [14C]-alpha-methyl-D-glucopyranoside transport after 60 mins by scintillation counting
T1 sequence (P53790 whole entry): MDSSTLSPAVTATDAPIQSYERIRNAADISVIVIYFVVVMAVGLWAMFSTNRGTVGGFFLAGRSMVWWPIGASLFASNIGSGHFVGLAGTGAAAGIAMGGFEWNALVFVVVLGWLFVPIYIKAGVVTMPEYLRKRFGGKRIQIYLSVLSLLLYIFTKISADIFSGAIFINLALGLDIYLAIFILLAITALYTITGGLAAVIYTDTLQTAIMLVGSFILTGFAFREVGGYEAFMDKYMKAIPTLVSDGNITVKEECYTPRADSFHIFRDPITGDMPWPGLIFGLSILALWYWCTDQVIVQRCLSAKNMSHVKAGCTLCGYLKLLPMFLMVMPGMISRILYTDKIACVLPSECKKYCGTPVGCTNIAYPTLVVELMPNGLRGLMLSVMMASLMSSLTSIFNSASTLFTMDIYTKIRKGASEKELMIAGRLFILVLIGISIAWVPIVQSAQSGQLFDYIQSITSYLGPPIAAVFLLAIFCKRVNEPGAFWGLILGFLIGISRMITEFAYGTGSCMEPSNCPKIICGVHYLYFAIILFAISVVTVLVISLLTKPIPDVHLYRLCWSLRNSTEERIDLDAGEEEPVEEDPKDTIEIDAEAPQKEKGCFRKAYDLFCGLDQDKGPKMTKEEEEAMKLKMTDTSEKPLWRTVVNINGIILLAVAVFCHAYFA

[2] = target: T2, SGLT1 protein (Mus musculus, UniProt Q9QXI6); test: Inhibition of mouse SGLT1 expressed in CHO cells assessed as inhibition of [14C]-alpha-methyl-D-glucopyranoside transport after 60 mins by scintillation counting
T2 sequence (Q9QXI6 whole entry): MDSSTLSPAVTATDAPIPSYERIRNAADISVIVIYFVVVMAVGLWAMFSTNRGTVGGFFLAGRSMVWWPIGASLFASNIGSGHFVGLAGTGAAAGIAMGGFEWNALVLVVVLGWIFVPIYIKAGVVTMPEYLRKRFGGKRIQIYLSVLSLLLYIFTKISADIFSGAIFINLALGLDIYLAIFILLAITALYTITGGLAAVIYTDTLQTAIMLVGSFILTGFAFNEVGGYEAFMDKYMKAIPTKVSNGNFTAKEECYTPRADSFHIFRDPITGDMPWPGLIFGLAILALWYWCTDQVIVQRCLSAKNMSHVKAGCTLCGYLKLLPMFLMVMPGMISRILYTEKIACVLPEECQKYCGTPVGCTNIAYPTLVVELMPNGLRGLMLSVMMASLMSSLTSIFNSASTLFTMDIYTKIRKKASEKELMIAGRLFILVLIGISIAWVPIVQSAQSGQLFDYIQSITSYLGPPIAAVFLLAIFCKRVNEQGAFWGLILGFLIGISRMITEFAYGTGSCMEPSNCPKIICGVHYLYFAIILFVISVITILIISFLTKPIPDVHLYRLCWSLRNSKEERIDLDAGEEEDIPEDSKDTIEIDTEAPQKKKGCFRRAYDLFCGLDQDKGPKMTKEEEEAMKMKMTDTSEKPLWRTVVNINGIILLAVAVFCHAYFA

[3] = target: T3, Sodium/glucose cotransporter 1 (Homo sapiens, UniProt P13866); test: Inhibition of human SGLT1 expressed in CHO cells assessed as inhibition of [14C]-alpha-methyl-D-glucopyranoside transport after 60 mins by scintillation counting
T3 sequence (P13866 whole entry): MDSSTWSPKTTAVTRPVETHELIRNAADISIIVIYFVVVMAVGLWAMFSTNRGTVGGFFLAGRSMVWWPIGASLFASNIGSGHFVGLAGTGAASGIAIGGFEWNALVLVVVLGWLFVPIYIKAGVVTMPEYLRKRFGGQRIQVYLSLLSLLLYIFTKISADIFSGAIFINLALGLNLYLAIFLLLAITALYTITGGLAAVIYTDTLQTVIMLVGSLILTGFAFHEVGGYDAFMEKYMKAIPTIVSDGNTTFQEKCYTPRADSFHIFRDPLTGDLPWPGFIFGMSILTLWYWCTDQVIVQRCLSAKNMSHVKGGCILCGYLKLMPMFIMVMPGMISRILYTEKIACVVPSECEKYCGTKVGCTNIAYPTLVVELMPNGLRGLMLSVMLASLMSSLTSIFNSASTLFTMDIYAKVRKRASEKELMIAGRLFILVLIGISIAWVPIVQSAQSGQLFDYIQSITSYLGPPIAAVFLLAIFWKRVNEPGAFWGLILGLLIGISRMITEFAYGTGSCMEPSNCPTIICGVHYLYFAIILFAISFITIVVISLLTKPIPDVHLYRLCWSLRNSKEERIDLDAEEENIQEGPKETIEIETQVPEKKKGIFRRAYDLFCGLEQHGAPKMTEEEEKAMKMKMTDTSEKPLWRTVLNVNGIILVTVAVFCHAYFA

[4] = target: T4, Sodium/glucose cotransporter 2 (Mus musculus, UniProt Q923I7); test: Inhibition of mouse SGLT2 expressed in CHO cells assessed as inhibition of [14C]-alpha-methyl-D-glucopyranoside transport after 60 mins by scintillation counting
T4 sequence (Q923I7 whole entry): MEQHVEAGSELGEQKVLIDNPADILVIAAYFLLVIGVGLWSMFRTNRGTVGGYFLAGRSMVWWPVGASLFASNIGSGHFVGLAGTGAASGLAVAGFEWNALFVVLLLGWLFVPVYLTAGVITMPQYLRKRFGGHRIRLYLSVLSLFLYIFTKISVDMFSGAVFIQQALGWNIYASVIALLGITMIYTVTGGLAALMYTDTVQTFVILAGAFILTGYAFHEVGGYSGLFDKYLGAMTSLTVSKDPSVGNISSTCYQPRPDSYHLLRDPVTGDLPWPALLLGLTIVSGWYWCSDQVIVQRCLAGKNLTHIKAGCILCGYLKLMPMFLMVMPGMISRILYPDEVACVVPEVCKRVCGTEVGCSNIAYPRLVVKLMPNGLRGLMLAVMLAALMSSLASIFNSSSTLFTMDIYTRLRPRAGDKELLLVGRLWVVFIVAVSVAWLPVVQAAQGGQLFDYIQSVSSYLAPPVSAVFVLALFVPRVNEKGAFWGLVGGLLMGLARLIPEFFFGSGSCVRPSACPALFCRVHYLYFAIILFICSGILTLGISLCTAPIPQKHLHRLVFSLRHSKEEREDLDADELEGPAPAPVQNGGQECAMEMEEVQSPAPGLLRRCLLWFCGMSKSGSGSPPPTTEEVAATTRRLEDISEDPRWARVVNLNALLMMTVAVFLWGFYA

Cn1c(CN2C(=O)CSc3ccc(C(F)(F)F)cc32)nnc1SCc1ccc(Cl)cc1
IC50 [1]: 9 µM | IC50 [2]: 3 µM | IC50 [3]: 7 µM | IC50 [4]: 1.2 µM
